Like-named read-outs stand apart in the source and are kept apart here.
Legend:
[1] = tested on: strawberries; micro-organisms
Experimental: Fruits were treated without or with gas with each gas at 40 ppm. N=12, Differences between control and treated groups (P<0.05-P<0.005).

[2] = tested on: Banana, Tomato and slices of avocado; yeast and/or bacteria
Description: Representative samples include fruits (Banana), and vegetables (Tomato) and slices of avocado. Experiments were repeated at least four times and each food category included a minimum of six items in each group. The containers were made of gas impermeable Plexiglas that snugly fitted onto the container rim. Fruits were placed on regular kitchen towels that covered the bottom of the containers. Control and experimental group (Exp) of fruits were placed in separate containers. The amount of H2S—H2 gas within the Exp containers varied from 5-15 ppm during the course of exposure. When the level dropped below 5 ppm, the H2 gas was substituted. Experiment was carried out at room temperature for the durations shown. […] Growth of bacteria and yeast was checked by taking samples of food and streaking them over agar. Samples from each fruit were diluted in phosphate buffered saline, pH 7.4. From each sample, 20 microliters was streaked on agar plates and plates were maintained either at room temperature or at 37° C.

[3] = tested on: bacteria and yeast; assay: Agar plates stored with H2S gas 40 ppm (FIG. 11, 104); assay type: cell-based; details: H2S 40 ppm
Description: Representative samples of foods shown include fruits, and vegetables. […] Control foods were stored in closed containers. The containers were made of aluminum with a plastic lid that snugly fitted onto the container rim. […] The inlet and outlet valves were then closed. Using a H2S gas detector capable of detecting 1 to 500 ppm of H2S, no H2S was detected outside the chamber. […] There is small change in color, consistency, and of the same food group and there is no evidence of growth of yeast in the H2S gas-treated group. Growth of bacteria and yeast was checked by taking samples of food and streaking them over agar. […] Strawberry 80. […] This growth was quite evident on day 5 (arrows, 81). The fruit also lost its consistency and is discolored. […] Banana, 86. Growth of yeast is seen by day 8 in the control group. The fruit also lost its consistency and is discolored. […] A slice of banana 99. […] The fruit also lost its consistency and is discolored. […] Pistachio 101. […] Green bananas 102. Green bananas in each group were used in this experiment. The control bananas ripened, developed a yellow color that still maintained some of their green color on day 8. Tomatoes 103. Green tomatoes in each group were used in this experiment. […] Samples from each fruit were diluted in phosphate buffered saline, pH 7.4. […]

[4] = tested on: humans; details: cited from earlier work
[5] = 0.01-0.1 mol/liter solutions at 18° C.; cited from earlier work
[6] = tested on: mice; details: cited from earlier work
[7] = in water; cited from earlier work
[8] = tested on: Strawberry, Blackberry, Raspberry, Banana, Tomato and Avocado; mold and/or bacteria
Description: Representative samples include but are not limited to (Strawberry, Blackberry, Raspberry, Banana, Tomato and Avocado). Experiments were repeated at least four times and each food category included a minimum of six items in each group. The containers were made of gas impermeable plexi-glass that snugly fitted onto the container rim. Fruits were placed on regular kitchen towels that covered the bottom of the container. Control and experimental group (Exp) of fruits were placed in separate containers. […] When the level dropped below 5 ppm, the H2 gas was substituted. Experiment was carried out at room temperature for the durations shown.

[9] = in water; cited from earlier work; remark: listed apart in the source

## [He] [Helium]
[1]
  growth of micro-organisms: retarded but did not prevent growth of micro-organisms
[1]; relative to Hydrogen
  effect on ripening and oxidation: greater than Hydrogen
  prevention of food spoilage: comparable with Hydrogen
[2]; closed environment, room temperature
  food spoilage: prevents food spoilage

## S [Hydrogen Sulfide]
[3]
  time without growth following initiation of cultures: up to 2 months
[4]; 5 minute exposure
  lethal concentration for 50% of humans (LC50): 800 ppm
[4]; after a few inhalations
  concentration at which the olfactory nerve is paralyzed: 100-150 ppm
[4]; even after a single breath
  concentration causing immediate collapse with loss of breathing: over 1000 ppm
[4]; in vivo
  borderline concentration for eye irritation: 10-20 ppm
  concentration causing strong stimulation of the central nervous system and rapid breathing, leading to loss of breathing: 530-1000 ppm
  concentration leading to eye damage: 50-100 ppm
  concentration leading to pulmonary edema with the possibility of death: 320-530 ppm
  concentration with an exposure limit of 8 hours per day: < 10 ppm
  recognition threshold, concentration at which 50% of humans can detect the odor: 0.0047 ppm
  threshold level at which the oxidative (detoxifying) enzymes get overwhelmed: 300-350 ppm
[5]
  pKa (giving the hydro-sulfide ion HS^−): 6.9
[6]; 81 ppm H2S, 6 hours
  health consequences after the procedure: no negative health consequences
[6]; mice treated with Hydrogen Sulfide (81 ppm)
  blood pressure: did not significantly decrease
[6]; range of 80 ppm
  side effects: no side effects

## [HH] [Hydrogen]
[7]
  reaction rate constant k, .OH + H2: 4.2e+07 M⁻¹ s⁻¹
[8]; H2 5-45 ppm, closed container, room temperature
  food spoilage and growth of mold and/or bacteria: prevents food spoilage and retards but does not inhibit growth of mold and/or bacteria
[8]; Strawberry, Raspberry, Blackberry, control day 3, less severe than control
  day on which growth of mold is evident: 4 days
[8]; day 4
  discoloration and yeast growth on avocado slice: only moderate surface discoloration and no evidence of growth of yeast
[8]; day 4, versus control
  ripening and surface discoloration of un-ripened bananas: less ripening and discoloration
  ripening of un-ripened tomato: less ripening
[2]
  food spoilage: prevents food spoilage
[9]
  reaction rate constant k, .O^− + H2: 8e+07 M⁻¹ s⁻¹

Source: patent US20140342065A1 (priority 2012, published 2014)
